These results are taken from US5455267A, “Chromone derivative, and aldose reductase inhibitor comprising said compound as active component” (Tsumura & Co., priority 1990, dated 1995).

For orientation: inhibition means how much of the control response was suppressed. A word on the IC50: it is the midpoint of a concentration-inhibition curve.

Where a name gives a salt, the structure may show the parent alone. Read-outs that look alike come from different tables or passages of the source.

In one experiment the target is T1, aldose reductase (Rattus norvegicus, UniProt P07943).
T1 construct: The crystalline lenses were homogenized in 135 mM sodium-potassium-phosphate buffer (pH 7.0) and centrifuged; from tissue; host or cells: lens of 6 week-old Wistar rats (30,000 rpm supernatant of homogenate)
The experiment in a line: Determination of Aldose Reductase Activity (In Vitro). The experiment is classed as biochemical, rat (Wistar). As to conditions: for inhibition at 10 µM: at the concentration of 10 μM, read-out: Inhibition rate %. As for the experimental part: 6 week-old Wistar rats were sacrificed under ether anesthesia, and immediately lenses were removed and stored at -20° C. The crystalline lenses were homogenized in 135 mM sodium-potassium-phosphate buffer (pH 7.0) and centrifuged for 30 min. at 30,000 rpm. The supernatant was used as an aldose-reductase solution. The above procedure was carried out at 4° C. The enzyme solution was stored at -20° C.
The measurement of aldose reductase activity was conducted according to the method as described by Duffane et al. (Biochemical Medicine, 32:99-105 (1984)).
That is, 100 gl of the above enzyme solution and 100 gl of a solution prepared by dissolving a compound obtained in the following example to a final concentration of from 1.0×10^-5 to 4.0×10^-7 M in dimethylsulfoxide (DMSO) were added to 800 gl of 135 mM sodium-potassium-phosphate buffer (pH 7.0) containing 100 mM lithium sulfate, 0.03 mM NADPH (reduced form of nicotinamide adeninc dinucleotide phosphate) and 20 mM glucose as a substrate. The sample was allowed to react for 30 min. at 30° C. The reaction was stopped by addition of 0.3 ml of 0.5N hydrochloric acid. The NADP (oxided form of nicotinamide adenine dinucleotide) formed during the above reaction was converted into a fluorescent substance by addition of 1 ml of 6N sodium hydroxide containing 10 mM imidazole. 30 min. thereafter, the sample was measured for fluorescence intensity at the fluorescence wavelength of 460 nm (excitation wavelength: 360 nm) using a fluorescence photometer F-4000 (manufactured by Hitachi, Ltd.) at room temperature. A sample containing DMSO in place of the present compound was used as a control, and its fluorescence intensity was determined in the same manner as above.
Aldose reductase is an enzyme to convert DL-glyceraldehyde or glucose into polyol in the presence of NADPH as a coenzyme. As this reaction proceeds, NADPH is converted into NADP, so that the smaller amount of NADP formed indicates higher inhibition of aldose reductase. […]

The test system of experiment [1] is sorbitol contained in the sciatic nerves (aldose reductase). In words: Determination of Aldose Reductase Activity (In Vivo): sorbitol in sciatic nerves of STZ diabetic rats. As to conditions: Rattus norvegicus, po, 336 h, Table 3, sciatic nerve sorbitol, read-out: Repression rate %; for inhibition in vivo at 50 mg/kg: 50 mg/Kg orally; for inhibition in vivo at 30 mg/kg: 30 mg/kg orally for 2 weeks. Also on record: species or system Wistar male rats. How it is done: Streptozotocin (STZ) dissolved in 10 mM citrate buffer (pH 4.5) was administered intravenously to 6 week-old Wistar male rats […] in an amount of 65 mg/kg. 48 hours thereafter, blood was collected from the carotid […] of the rats. Rats with a blood glucose level of 200 mg/dl or more were classified as those with diabetes. Rats with a persistent high level of blood sugar were employed in the experiment. The blood glucose level was determined by the glucose oxidase method. 2 weeks after administration of STZ, a compound obtained in the following examples was suspended in purified water or 0.5% carboxy sodium cellulose solution. This solution was orally administered into a rat in an amount of 30 mg/kg for 2 weeks. 2 weeks after the adminstration, sciatic nerves were removed from the rat under ether anesthesia. The sciatic nerves were weighed and stored at -20° C. The amount of sorbitol contained in the sciatic nerves was determined as follows. That is, the sciatic nerves were subjected to extraction with 1 ml of purified water containing 10 gg/ml arabinitol at 100° C. for 20 min., followed by addition of 0.2 ml each of 0.2M barium hydroxide and 0.19M zinc sulfate. […] The resulting sample was […] then analyzed by gas chromatography. Sorbitol is an intermediate which occurs during convertion of glucose to fructose by aldose reductase, and this intermediate is accumulated together with fructose in the crystalline lenses and sciatic nerves, particularly under a high level of blood glucose. Therefore, the smaller amount of sorbitol formed indicates higher inhibition of aldose reductase.

The target in the next experiment is T2, aldehyde reductase (Rattus norvegicus, UniProt P51635).
T2 construct: The supernatant thus obtained was subjected to 30-60% ammonium sulfate fractionation; from tissue; host or cells: rat kidney (30-60% ammonium sulfate fraction of homogenate supernatant, dialyzed)
T2 sequence (P51635 1-325): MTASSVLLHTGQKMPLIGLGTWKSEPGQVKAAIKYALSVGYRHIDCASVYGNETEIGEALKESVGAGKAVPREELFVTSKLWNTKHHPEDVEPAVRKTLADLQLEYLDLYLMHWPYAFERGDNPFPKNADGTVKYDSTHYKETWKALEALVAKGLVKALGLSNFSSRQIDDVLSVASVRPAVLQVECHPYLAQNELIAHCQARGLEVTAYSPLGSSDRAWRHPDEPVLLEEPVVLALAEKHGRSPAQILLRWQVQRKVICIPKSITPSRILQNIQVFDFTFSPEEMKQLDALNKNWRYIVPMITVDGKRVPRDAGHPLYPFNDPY
In words: Ability of Selective Inhibition of Aldose Reductase (aldehyde reductase activity). The experiment is classed as biochemical. As to conditions: for IC50: Table 4, rat kidney aldehyde reductase, 50 mM DL-glyceraldehyde, pH 7.0, read-out: 50% Inhibition conc [IC50 (M)] Aldehyde reductase. As for the experimental part:
From rats under ether anesthesia, the kidneys were removed and stored at -20 ° C. The kidneys were homogenized in 0.1M phosphate buffer (pH 7.2) containing 5 mM 2-mercaptoethanol (kidneys: buffer =1:10 (by volume)), followed by centrifugation (14,000 rpm, 20 min., 4° C.), whereby a supernatant was obtained. The supernatant thus obtained was subjected to 30-60% ammonium sulfate fractionation. The resulting precipitates were collected by centrifugation (9,200 rpm, 20 min., 4° C.) The precipitates were suspended in a buffer with the same composition as described above. This suspension was dialyzed overnight at 4° C. against a buffer with the same composition, so that a crude aldehyde reductase solution was obtained. The activity of aldehyde reductase was determined in the same manner as for aldose reductase except for use of 0.1M phosphate buffer (pH 7.0) and as substrate 50 mM DL-glyceraldehyde.
The ability of selective inhibition of aldose reductase was determined by dividing the thus obtained 50% inhibition concentration [IC50 (M)] of aldehyde reductase by the above 50% inhibition concentration [IC50 (M)]of aldose reductase.

Where [2] appears, read: Table 3, rat lens aldose reductase, 20 mM glucose, 30 min, 30° C, pH 7.0, read-out: 50% Inhibition Conc. [IC50 (M)].
Setting [3] is: Table 4, aldose reductase, read-out: 50% Inhibition conc [IC50 (M)] Aldose reductase.

`COc1c(OC(C)C)cc2oc(Sc3ccc(O)cc3)cc(=O)c2c1OC` [Example 22, 5,6-dimethoxy-2-(4-hydroxyphenylthio)-7-isopropoxychromone]: the inhibition at 10 µM on aldose reductase (Table 3) was determined as 98.3%. Further, the concentration for half-maximal inhibition (IC50) at aldose reductase (setting [2]) was 3e-08 M; on aldehyde reductase, > 0.0001 M. Moreover, in experiment [1], the inhibition in vivo at 50 mg/kg was determined as 6.8%.

Consider `CCC(CC)Oc1cc2oc(Sc3ccc(O)cc3)cc(=O)c2c(O)c1OC` [Example 33, 7-(1-ethylpropoxy)-5-hydroxy-2-(4-hydroxyphenylthio)-6-methoxychromone], for which, at aldose reductase (Table 3), the inhibition at 10 µM worked out at 96.7%. The figures for the IC50 on aldose reductase (setting [2]) and at aldehyde reductase were 1.1e-07 M and 0.0001 M, respectively.

With `COc1cc2oc(Sc3ccc(O)cc3)cc(=O)c2c(OC)c1OC` [Example 1, 2-(4-hydroxyphenylthio)-5,6,7-trimethoxychromone], the inhibition at 10 µM at aldose reductase (Table 3) was found to be 97.3%. Moreover, the values for the half-inhibitory concentration (IC50) on aldose reductase (setting [2]) and on aldehyde reductase were 1.1e-07 M and > 0.0001 M, respectively.

Regarding `CCOc1c(OC)c(OC(C)C)cc2oc(Sc3ccc(OC(=O)CN)cc3)cc(=O)c12` [Example 36, 5-ethoxy-2-(4-glycyloxyphenylthio)-7-isopropoxy-6-methoxychromone hydrochloride], the inhibition in vivo at 30 mg/kg in experiment [1] was 12.3%.

`CCOc1c(OC)c(OC(C)C)cc2oc(Sc3ccc(O)cc3)cc(=O)c12` [Example 18, 5-ethoxy-2-(4-hydroxyphenylthio)-7-isopropoxy-6-methoxychromone]: the inhibition at 10 µM at aldose reductase (Table 3) was 98.7%. Also, the half-inhibitory concentration (IC50) is 1.8e-08 M at aldose reductase (setting [3]) and > 0.0001 M on aldehyde reductase. Moreover, the inhibition in vivo at 50 mg/kg in experiment [1] was determined as 5.9%.

Consider `CCC(CC)Oc1cc2oc(Sc3ccc(OC(=O)c4ccc(CN5CCN(C)CC5)cc4)cc3)cc(=O)c2c(OC)c1OC` [Compound 2 obtained in Example 39, 5,6-dimethoxy-7-(1-ethylpropoxy)-2-{4-[4-(4-methylpiperazinomethyl)benzoyloxy]phenylthio}chromone dihydrochloride], for which the inhibition in vivo at 30 mg/kg in experiment [1] is 4.6%.

As to `CCC(C)Oc1cc2oc(Sc3ccc(O)cc3)cc(=O)c2c(OC(C)C)c1OC` (stereo not drawn) [Example 16, 7-s-butoxy-2-(4-hydroxyphenylthio)-5-isopropoxy-6-methoxychromone], the inhibition at 10 µM on aldose reductase (Table 3) was found to be 96.5%. The 50% inhibitory concentration (IC50) at aldose reductase (setting [2]) was 3.8e-08 M; on aldehyde reductase, > 0.0001 M.

As to `COc1c(OC(C)C)cc2oc(Sc3ccc(OC(=O)CN)cc3)cc(=O)c2c1OC` [Example 35, 5,6-dimethoxy-2-(4-glycyloxyphenylthio)-7-isopropoxychromone hydrochloride], in experiment [1], the inhibition in vivo at 30 mg/kg was determined as 43.7%.

With `COc1c(O)cc2oc(Sc3ccc(O)cc3)cc(=O)c2c1O` [Compound (Formula B), reference compound], on aldose reductase (Table 3), the inhibition at 10 µM was determined as 94.5%. The half-inhibitory concentration (IC50) was 1.8e-07 M on aldose reductase (setting [3]) and 1e-05 M on aldehyde reductase. Besides, the “Ability of selective inhibition” value on aldehyde reductase (IC50 of aldehyde reductase divided by IC50 of aldose reductase) came out at 55.5.

`CCC(CC)Oc1cc2oc(Sc3ccc(O)cc3)cc(=O)c2c(OC)c1OC` [Example 25, 5,6-dimethoxy-7-(1-ethylpropoxy)-2-(4-hydroxyphenylthio)chromone]: the inhibition at 10 µM on aldose reductase (Table 3) worked out at 93.2%. Besides, the IC50 was 6e-08 M on aldose reductase (setting [2]) and > 0.0001 M on aldehyde reductase. Besides, the inhibition in vivo at 50 mg/kg in experiment [1] was 16%.

With `CCC(C)Oc1cc2oc(Sc3ccc(O)cc3)cc(=O)c2c(OC)c1OC` (stereo not drawn) [Example 23, 7-s-butoxy-5,6-dimethoxy-2-(4-hydroxyphenylthio)chromone], the inhibition at 10 µM on aldose reductase (Table 3) was found to be 100%. For the same compound, the results for the concentration for half-maximal inhibition (IC50) at aldose reductase (setting [2]) and on aldehyde reductase were 4.4e-08 M and > 0.0001 M, respectively.

For `COc1c(O)cc2oc(Oc3ccc(O)cc3)cc(=O)c2c1O` [Capillarisin, reference compound], the inhibition at 10 µM on aldose reductase (Table 3) stood at 81%. For the same compound, the IC50 on aldose reductase (setting [2]) turned out to be 1.6e-06 M. Also, the inhibition in vivo at 100 mg/kg in experiment [1] (100 mg/kg orally) came to 18.9%.

With `CCC(CC)Oc1cc2oc(Sc3ccc(OC(=O)c4ccc(CN5CCN(C)CC5)cc4)cc3)cc(=O)c2c(O)c1OC` [Example 40, 7-(1-ethylpropoxy)-5-hydroxy-2-{4-[4-(4-methylpiperazinomethyl)benzoyloxy]phenylthio}-6-methoxychromone dihydrochloride], in experiment [1], the inhibition in vivo at 30 mg/kg came out at 27.9%.

As for `CCC(CC)Oc1cc2oc(Sc3ccc(OC(=O)CN)cc3)cc(=O)c2c(OC)c1OC` [Compound 1 obtained in Example 37, 7-(1-ethylpropoxy)-5,6-dimethoxy-2-(4-glycyloxyphenylthio)chromone hydrochloride], the inhibition in vivo at 30 mg/kg in experiment [1] stood at 51.6%.

As to `COc1c(OCC(C)C)cc2oc(Sc3ccc(O)cc3)cc(=O)c2c1OC(C)C` [Example 17, 2-(4-hydroxyphenylthio)-7-isobutoxy-5-isopropoxy-6-methoxychromone], the inhibition at 10 µM at aldose reductase (Table 3) was found to be 95.1%. The 50% inhibitory concentration (IC50) on aldose reductase (setting [2]) was 1.3e-07 M.

For `CCOc1cc2oc(Sc3ccc(O)cc3)cc(=O)c2c(OCC)c1OC` [Example 11, 5,7-diethoxy-2-(4-hydroxyphenylthio)-6-methoxychromone], at aldose reductase (Table 3), the inhibition at 10 µM was determined as 98.5%. Further, the 50% inhibitory concentration (IC50) at aldose reductase (setting [2]) was 4e-08 M.

Regarding `COc1cccc(Sc2cc(=O)c3c(OC)cc(OC)cc3o2)c1` [Example 47, 5,7-dimethoxy-2-(3-methoxyphenylthio)chromone], the inhibition at 10 µM at aldose reductase (Table 3) turned out to be 36.5%.

With `COc1c(OC(C)C)cc2oc(Sc3ccc(O)cc3)cc(=O)c2c1O` [Example 26, 5-hydroxy-2-(4-hydroxyphenylthio)-7-isopropoxy-6-methoxychromone], the inhibition at 10 µM on aldose reductase (Table 3) was 98.1%. The IC50 on aldose reductase (setting [2]) turned out to be 6.5e-08 M.

Consider `CCCOc1cc2oc(Sc3ccc(O)cc3)cc(=O)c2c(OCCC)c1OC` [Example 12, 5,7-dipropoxy-2-(4-hydroxyphenylthio)-6-methoxychromone], for which, at aldose reductase (Table 3), the inhibition at 10 µM was found to be 93%. In addition, on aldose reductase (setting [2]), the IC50 is 1.5e-07 M.
